Measurements published in patent US9302999B2, “Substituted triazoles as herbicides” (E. I. DU PONT DE NEMOURS AND COMPANY, priority 2012, dated 2016).

How the values were obtained:
[1] = tested on: velvetleaf (Abutilon theophrasti); assay: Test A pre-/postemergence: velvetleaf; assay type: in vivo
Outline: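 Plants in loam–sand blend were treated with test chemicals in non-phytotoxic solvent with surfactant, either as preemergence directed soil spray or postemergence at 2–10 cm, one- to two-leaf stage. After about ten days in greenhouse, injury was rated visually against untreated controls on a 0–100 scale (100 = complete control).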

rice (Oryza sativa) = assay: Test B flooded paddy: rice; assay type: in vivo; details: Flood; 250 g ai/ha; applied to paddy water at 2-leaf stage; visually evaluated after 13 to 15 days
Outline: (§1)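 Visual ratings (0 = no effect, 100 = complete control) versus untreated controls were taken 13–15 days after treatment of greenhouse plants. Treatment was added to paddy water held at 3 cm depth on 2-leaf-stage seedlings.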

[2] = tested on: barnyardgrass (Echinochloa crus-galli); assay: Test B flooded paddy: barnyardgrass; assay type: in vivo; details: Flood; 250 g ai/ha; applied to paddy water at 2-leaf stage; visually evaluated after 13 to 15 days
Outline: as §1

[3] = tested on: winter wheat (Triticum aestivum); assay: Test C pre-/postemergence: winter wheat; assay type: in vivo
Outline: (§2)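 Visual injury scored 0–100 (100 = complete control) against untreated controls after 13–15 greenhouse days. Surfactant-containing solvent formulations applied either to soil after sowing (loam/sand) or over 1- to 4-leaf plants, 2–18 cm tall.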

wild oat (Avena fatua) = assay: Test C pre-/postemergence: wild oat; assay type: in vivo; details: Postemergence
Outline: as §2

[4] = tested on: galium (catchweed bedstraw, Galium aparine); assay: Test C pre-/postemergence: galium; assay type: in vivo
Outline: as §2

[5] = tested on: pigweed (Amaranthus retroflexus); assay: Test C pre-/postemergence: pigweed; assay type: in vivo
Outline: as §2

[6] = tested on: velvetleaf (Abutilon theophrasti); assay: Test C pre-/postemergence: velvetleaf; assay type: in vivo
Outline: as §2

Barnyardgrass [7] = assay: Test C postemergence: barnyardgrass; assay type: in vivo, Echinochloa crus-galli; details: 125 g ai/ha, scale 0 to 100, 0 no effect, 100 complete control
Barnyardgrass [8] = assay: Test C preemergence: barnyardgrass; assay type: in vivo, Echinochloa crus-galli
[9] = Postemergence, 125 g ai/ha, 0 to 100 scale, 0 is no effect, 100 is complete control
[10] = Postemergence, 500 g ai/ha, visual rating on 0 to 100 scale (0 no effect, 100 complete control), approximately ten days
[11] = Postemergence, 31 g ai/ha, scale 0 to 100 (0 no effect, 100 complete control)
[12] = Postemergence, 62 g ai/ha, scale 0 to 100 (0 no effect, 100 complete control)
[13] = Postemergence, 125 g ai/ha, scale 0 to 100, 0 no effect, 100 complete control
[14] = Postemergence, 250 g ai/ha, scale 0 to 100
[15] = Preemergence, 62 g ai/ha, scale of 0 to 100, 0 is no effect, 100 is complete control
[16] = Preemergence, 125 g ai/ha, scale 0 to 100, 0 no effect, 100 complete control
[17] = Preemergence, 250 g ai/ha, scale 0 to 100, 0 no effect, 100 complete control
[18] = 31 g ai/ha, scale 0 to 100 (0 no effect, 100 complete control)
[19] = 62 g ai/ha, scale 0 to 100 (0 no effect, 100 complete control)
[20] = 125 g ai/ha, scale 0 to 100, 0 no effect, 100 complete control
[21] = Preemergence, 31 g ai/ha, scale of 0 to 100, 0 is no effect, 100 is complete control
[22] = 31 g ai/ha, scale of 0 to 100, 0 is no effect, 100 is complete control
[23] = 62 g ai/ha, scale of 0 to 100, 0 is no effect, 100 is complete control
[24] = Preemergence, 125 g ai/ha, 0 to 100 scale where 0 is no effect and 100 is complete control
[25] = Preemergence, 500 g ai/ha, 0 to 100 scale (0 no effect, 100 complete control)
[26] = Postemergence, 250 g ai/ha, scale 0 to 100 (0 no effect, 100 complete control)
[27] = Preemergence, 31 g ai/ha, scale 0 (no effect) to 100 (complete control)

## CCc1nn(-c2ccc(C(F)(F)F)cc2)nc1Cc1ccnc(C(F)(F)F)c1 [Compound 155]
[1]; [9]
  Plant response rating, Velvetleaf: 100
[1]; [10]
  Velvetleaf plant response rating: 100
Rice (Oryza sativa)
  Plant response rating, Rice (0 to 100 scale, 0 is no effect, 100 is complete control): 50
[2]
  Plant response rating, Barnyardgrass (0 to 100 scale, 0 is no effect, 100 is complete control): 75
[3]; [11]
  Plant response rating, Wheat: 15
[3]; [12]
  Plant response rating, Wheat: 30
[3]; [13]
  Plant response rating, Wheat: 35
[3]; [14]
  Plant response rating, Wheat: 40
[3]; [15]
  Plant response rating, Wheat: 5
[3]; [16]
  Plant response rating, Wheat: 10
[3]; [17]
  Plant response rating, Wheat: 35
Wild oat (Avena fatua); [18]
  Plant response rating, Oat, Wild: 40
Wild oat (Avena fatua); [19]
  Plant response rating, Oat, Wild: 45
Wild oat (Avena fatua); [20]
  Plant response rating, Oat, Wild: 75
Wild oat (Avena fatua); 250 g ai/ha, scale 0 to 100
  Plant response rating, Oat, Wild: 90
[4]; [11]
  Plant response rating, Galium: 70
[4]; [12]
  Plant response rating, Galium: 75
[4]; [13]
  Plant response rating, Galium: 80
[4]; [14]
  Plant response rating, Galium: 95
[4]; [21]
  Plant response rating, Galium: 98
[4]; [15]
  Plant response rating, Galium: 100
[4]; [16]
  Plant response rating, Galium: 100
[4]; [17]
  Plant response rating, Galium: 100
[5]; [11]
  Plant response rating, Pigweed: 90
[5]; [12]
  Plant response rating, Pigweed: 90
[5]; [13]
  Plant response rating, Pigweed: 98
[5]; [14]
  Plant response rating, Pigweed: 100
[5]; [21]
  Plant response rating, Pigweed: 100
[5]; [15]
  Plant response rating, Pigweed: 100
[5]; [16]
  Plant response rating, Pigweed: 100
[5]; [17]
  Plant response rating, Pigweed: 100
[6]; [11]
  Plant response rating, Velvetleaf: 50
[6]; [12]
  Plant response rating, Velvetleaf: 60
[6]; [13]
  Plant response rating, Velvetleaf: 75
[6]; [14]
  Plant response rating, Velvetleaf: 80
[6]; [21]
  Plant response rating, Velvetleaf: 30
[6]; [15]
  Plant response rating, Velvetleaf: 80
[6]; [16]
  Plant response rating, Velvetleaf: 85
[6]; [17]
  Plant response rating, Velvetleaf: 100
Barnyardgrass [7]
  Plant response rating, Barnyardgrass: 55
Barnyardgrass [8]; [22]
  Plant response rating, Barnyardgrass: 40
Barnyardgrass [8]; [23]
  Plant response rating, Barnyardgrass: 90
Barnyardgrass [8]; [20]
  Plant response rating, Barnyardgrass: 98

## CCCc1nn(-c2ccc(F)c(F)c2)nc1Oc1ccnc(C(F)(F)F)c1 [Compound 172]
[1]; [9]
  Plant response rating, Velvetleaf: 90
[1]; Postemergence, 500 g ai/ha, 0 to 100 scale, 0 is no effect, 100 is complete control
  Velvetleaf plant response rating: 100
[1]; [24]
  Plant response rating, Velvetleaf: 80
[1]; [25]
  Plant response rating, Velvetleaf: 90
Rice (Oryza sativa)
  Plant response rating, Rice (0 to 100 scale, 0 is no effect, 100 is complete control): 50
[2]
  Plant response rating, Barnyardgrass (0 to 100 scale, 0 is no effect, 100 is complete control): 80
[3]; [11]
  Plant response rating, Wheat: 10
[3]; [12]
  Plant response rating, Wheat: 20
[3]; [13]
  Plant response rating, Wheat: 25
[3]; [26]
  Plant response rating, Wheat: 30
[3]; [27]
  Plant response rating, Wheat: 15
[3]; [15]
  Plant response rating, Wheat: 40
[3]; [16]
  Plant response rating, Wheat: 45
[3]; [17]
  Plant response rating, Wheat: 45
Wild oat (Avena fatua); [18]
  Plant response rating, Oat, Wild: 15
Wild oat (Avena fatua); [19]
  Plant response rating, Oat, Wild: 20
Wild oat (Avena fatua); [20]
  Plant response rating, Oat, Wild: 45
Wild oat (Avena fatua); 250 g ai/ha, scale 0 to 100 (0 no effect, 100 complete control)
  Plant response rating, Oat, Wild: 80
[4]; [11]
  Plant response rating, Galium: 90
[4]; [12]
  Plant response rating, Galium: 90
[4]; [13]
  Plant response rating, Galium: 90
[4]; [26]
  Plant response rating, Galium: 90
[4]; [27]
  Plant response rating, Galium: 80
[4]; [15]
  Plant response rating, Galium: 100
[4]; [16]
  Plant response rating, Galium: 100
[4]; [17]
  Plant response rating, Galium: 100
[5]; [11]
  Plant response rating, Pigweed: 98
[5]; [12]
  Plant response rating, Pigweed: 98
[5]; [13]
  Plant response rating, Pigweed: 98
[5]; [26]
  Plant response rating, Pigweed: 98
[5]; [27]
  Plant response rating, Pigweed: 100
[5]; [15]
  Plant response rating, Pigweed: 100
[5]; [16]
  Plant response rating, Pigweed: 100
[5]; [17]
  Plant response rating, Pigweed: 100
[6]; [11]
  Plant response rating, Velvetleaf: 65
[6]; [12]
  Plant response rating, Velvetleaf: 65
[6]; [13]
  Plant response rating, Velvetleaf: 75
[6]; [26]
  Plant response rating, Velvetleaf: 80
[6]; [27]
  Plant response rating, Velvetleaf: 60
[6]; [15]
  Plant response rating, Velvetleaf: 75
[6]; [16]
  Plant response rating, Velvetleaf: 100
[6]; [17]
  Plant response rating, Velvetleaf: 100
Barnyardgrass [7]
  Plant response rating, Barnyardgrass: 85
Barnyardgrass [8]; 31 g ai/ha, scale 0 (no effect) to 100 (complete control)
  Plant response rating, Barnyardgrass: 85
Barnyardgrass [8]; [23]
  Plant response rating, Barnyardgrass: 98
Barnyardgrass [8]; [20]
  Plant response rating, Barnyardgrass: 100

## CCc1nn(-c2ccc(F)cc2)nc1Cc1ccnc(C(F)(F)F)c1 [Compound 154]
[1]; [9]
  Plant response rating, Velvetleaf: 100
[1]; [10]
  Velvetleaf plant response rating: 100
[1]; [24]
  Plant response rating, Velvetleaf: 30
[1]; [25]
  Plant response rating, Velvetleaf: 70
Rice (Oryza sativa)
  Plant response rating, Rice (0 to 100 scale, 0 is no effect, 100 is complete control): 45
[2]
  Plant response rating, Barnyardgrass (0 to 100 scale, 0 is no effect, 100 is complete control): 60
[3]; [11]
  Plant response rating, Wheat: 10
[3]; [12]
  Plant response rating, Wheat: 15
[3]; [13]
  Plant response rating, Wheat: 20
[3]; [14]
  Plant response rating, Wheat: 30
[3]; [15]
  Plant response rating, Wheat: 5
[3]; [16]
  Plant response rating, Wheat: 5
[3]; [17]
  Plant response rating, Wheat: 55
Wild oat (Avena fatua); [18]
  Plant response rating, Oat, Wild: 15
Wild oat (Avena fatua); [19]
  Plant response rating, Oat, Wild: 35
Wild oat (Avena fatua); [20]
  Plant response rating, Oat, Wild: 65
Wild oat (Avena fatua); 250 g ai/ha, scale 0 to 100
  Plant response rating, Oat, Wild: 65
[4]; [11]
  Plant response rating, Galium: 45
[4]; [12]
  Plant response rating, Galium: 60
[4]; [13]
  Plant response rating, Galium: 70
[4]; [14]
  Plant response rating, Galium: 75
[4]; [21]
  Plant response rating, Galium: 5
[4]; [15]
  Plant response rating, Galium: 85
[4]; [16]
  Plant response rating, Galium: 85
[4]; [17]
  Plant response rating, Galium: 100
[5]; [11]
  Plant response rating, Pigweed: 95
[5]; [12]
  Plant response rating, Pigweed: 95
[5]; [13]
  Plant response rating, Pigweed: 98
[5]; [14]
  Plant response rating, Pigweed: 98
[5]; [21]
  Plant response rating, Pigweed: 100
[5]; [15]
  Plant response rating, Pigweed: 100
[5]; [16]
  Plant response rating, Pigweed: 100
[5]; [17]
  Plant response rating, Pigweed: 100
[6]; [11]
  Plant response rating, Velvetleaf: 35
[6]; [12]
  Plant response rating, Velvetleaf: 45
[6]; [13]
  Plant response rating, Velvetleaf: 55
[6]; [14]
  Plant response rating, Velvetleaf: 65
[6]; [21]
  Plant response rating, Velvetleaf: 5
[6]; [15]
  Plant response rating, Velvetleaf: 45
[6]; [16]
  Plant response rating, Velvetleaf: 90
[6]; [17]
  Plant response rating, Velvetleaf: 100
Barnyardgrass [7]
  Plant response rating, Barnyardgrass: 25
Barnyardgrass [8]; [22]
  Plant response rating, Barnyardgrass: 45
Barnyardgrass [8]; [23]
  Plant response rating, Barnyardgrass: 90
Barnyardgrass [8]; [20]
  Plant response rating, Barnyardgrass: 90
